Test results as given in patent publication US20240009209A1, “PROTEIN-BOUND CANNABINOID FORMULATIONS AND USES THEREOF” (YISSUM RESEARCH DEVELOPMENT COMPANY OF THE HEBREW …, priority 2020, published 2024).

Test: Plasma CBD after IV administration
Type: in vivo, BALB/C mice
Conditions: mice, IV 12 mg/kg
Description: A total of 18 female BALB/C mice aged 12 weeks were injected IV with a single dose of 12 mg/kg CBD formulation in cremophor:ethanol.
At the time-points detailed below, 3 mice were euthanized with CO2 and terminal blood was immediately collected from the retro-orbital sinus in labeled 0.5 ml K3 EDTA blood collection tubes (Mini Collect, Greiner-bio-one, Austria). The blood was centrifuged at 2000×g for 10 minutes before plasma was extracted, collected in labeled tubes and frozen at −20° C. immediately after collection. The samples were then stored at −80° C. pending analysis.
Time-points for the blood collection: 2 min, 1, 4, 8, 24 and 48 h.
CBD was extracted from plasma samples that were spiked with cannabigerol (CBG, 1 mg/ml in methanol, Sigma, Cat. C-141-1 Add lot) used as internal standard (IS) followed by dilution of the plasma five-fold in acetonitrile. After vigorous vortex it was centrifuged, and the upper phase was analyzed. Final IS concentration in the samples was 100 ng/ml.
Plasma extracts were analyzed by LC/MS method (Sciex (Framingham, MA, USA) Triple Quad™ 5500 mass spectrometer coupled with a Shimadzu (Kyoto, Japan) UHPLC System). The concentrations were calculated based on a calibration curve of CBD in plasma at a range of 1-1,000 ng/ml having 100 ng/ml of Internal Standard (IS).

Compound: C=C(C)[C@@H]1CCC(C)=C[C@H]1c1c(O)cc(CCCCC)cc1O [free CBD, 2-[(1R,6R)-6-Isopropenyl-3-methylcyclohex-2-en1-yl]-5-pentylbenzene-1,3-diol]
- Plasma CBD Mean ± SD (24 h): BLOD
- Plasma CBD Mean ± SD (24 h, listed as CBD): below the limit of detection
- Plasma CBD Mean ± SD (48 h): BLOD
- Plasma CBD Mean ± SD (48 h, listed as CBD): below the limit of detection
